Experimental data as given in patent US8674096B2, “Substituted imidazo[1,5-a]quinoxalin-4-ones as phosphodiesterase 9 inhibitors” (priority 2009, dated 2014).

Assays:
PDE9 = target: T1, PDE9 (Homo sapiens, UniProt O76083); assay: PDE9-inhibiting activity (SPA, 3H-cGMP degradation); type: biochemical
T1 construct: made in house
Method: The PDE9 used in the present experiment was expressed/purified by the method as in, for example, Guipponi et al., and Fisher et., al. (Fisher, D. A., et al., J. Biol. Chem., 273: pp. 15559-15564 (1998), Guipponi, M., et al., Hum. Genet., 103: pp. 386-392 (1998)).
The PDE9-inhibiting activity was measured by the following method. That is, to a buffer solution containing tris(hydroxymethyl)aminomethane-hydrochloric acid (40 mM, pH 8.0), magnesium chloride (5 mM), and 2-mercaptoethanol (4 mM) were added cGMP (1 μM) and ^3H-cGMP (0.33 μCi/ml) to give a substrate buffer solution. A test substance solution and an enzyme solution which had been adjusted to an optimal concentration were added thereto to perform a reaction at 30° C. The enzyme reaction was stopped by the addition of Scintillation Proximity Assay (SPA) Beads (GE Healthcare, UK) containing 5 mM 3-isobutyl-1-methylxanthine (IBMX). For the enzyme activity, the amount of 5′-GMP, which is a reaction degradation product bound to SPA beads, was measured with a TopCount microplate reader (Hewlett Packard, USA).
The inhibitory rate was calculated by taking the radioactivity of the control containing no test substance as (A), taking the radioactivity of the blank containing no enzyme as (B), and taking the radioactivity of the test substance as (C), and using the following equation. Inhibitory rate=100−{(C)−(B)/(A)−(B)}×100(%)

T1 sequence (O76083 whole entry): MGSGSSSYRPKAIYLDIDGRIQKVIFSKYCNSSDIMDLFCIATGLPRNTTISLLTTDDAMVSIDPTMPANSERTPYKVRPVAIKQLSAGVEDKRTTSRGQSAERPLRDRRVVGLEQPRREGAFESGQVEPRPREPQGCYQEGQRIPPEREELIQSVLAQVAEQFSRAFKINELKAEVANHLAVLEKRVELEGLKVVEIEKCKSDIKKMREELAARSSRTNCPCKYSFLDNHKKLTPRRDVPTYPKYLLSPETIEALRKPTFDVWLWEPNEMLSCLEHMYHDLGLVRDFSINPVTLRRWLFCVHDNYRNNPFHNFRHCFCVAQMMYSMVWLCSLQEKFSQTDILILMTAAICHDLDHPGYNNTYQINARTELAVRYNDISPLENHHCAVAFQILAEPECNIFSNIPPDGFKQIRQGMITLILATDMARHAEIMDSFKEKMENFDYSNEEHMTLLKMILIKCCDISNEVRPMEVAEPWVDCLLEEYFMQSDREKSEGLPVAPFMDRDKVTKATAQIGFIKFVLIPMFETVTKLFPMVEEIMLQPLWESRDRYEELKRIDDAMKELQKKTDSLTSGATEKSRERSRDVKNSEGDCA

Cc1cc2c(cc1C(=O)N1CCc3ccccc31)[nH]c(=O)c1cnc(C3CCCC3)n12 [Example 3, 1-cyclopentyl-7-(2,3-dihydro-1H-indol-1-ylcarbonyl)-8-methylimidazo[1,5-a]quinoxalin-4(5H)-one]
IC50 (PDE9): 6.7 nM | melting point: 291 °C (dec.)

O=C(c1ccc2c(c1)[nH]c(=O)c1nnc(-c3ccc(O)cc3)n12)N1CCc2c(Cl)cccc2C1 [Example 4, 7-[(5-chloro-3,4-dihydroisoquinolin-2(1H)-yl)carbonyl]-1-(4-hydroxyphenyl)[1,2,4]triazolo[4,3-a]quinoxalin-4(5H)-one]
IC50 (PDE9): 19 nM | melting point: 373 °C (dec.)

Cc1cc2c(cc1C(=O)N1CCc3ccccc3C1c1ccncc1)[nH]c(=O)c1nnc(-c3ccc(O)c(Cl)c3)n12 (centres unmarked) [Example 5, 1-(3-chloro-4-hydroxyphenyl)-8-methyl-7-[(1-pyridin-4-yl-3,4-dihydroisoquinolin-2(1H)-yl)carbonyl][1,2,4]triazolo[4,3-a]quinoxalin-4(5H)-one]
IC50 (PDE9): 2.3 nM

Cc1cc2c(cc1C(=O)N1CCc3cc(Cl)ccc31)[nH]c(=O)c1nnc(C(F)C3CC3)n12.Cl (centres unmarked) [Example 11, 7-[(5-chloro-2,3-dihydro-1H-indol-1-yl)carbonyl]-1-[cyclopropyl(fluoro)methyl]-8-methyl[1,2,4]triazolo[4,3-a]quinoxalin-4(5H)-one]
IC50 (PDE9): 3.1 nM | melting point: 309 to 311 °C

Cc1cc2c(cc1C(=O)N1CCc3cc(F)ccc31)[nH]c(=O)c1nnc(C3CCC(F)(F)CC3)n12.Cl [Example 13, 1-(4,4-difluorocyclohexyl)-7-[(5-fluoro-2,3-dihydro-1H-indol-1-yl)carbonyl]-8-methyl[1,2,4]triazolo[4,3-a]quinoxalin-4(5H)-one hydrochloride]
IC50 (PDE9): 22 nM | melting point: 220 °C (dec.)

Cc1cc2c(cc1C(=O)N1Cc3ccccc3C1)[nH]c(=O)c1cnc(C3CCOCC3)n12 [Example 27]
IC50 (PDE9): 18 nM | melting point: 312 °C (dec.)

Cc1cc2c(cc1C(=O)N1CCc3sccc3C1)[nH]c(=O)c1cnc(C3CCOCC3)n12.Cl [Example 35]
IC50 (PDE9): 12 nM | melting point: 283 to 285 °C

COC(=O)c1cccc2c1CN(C(=O)c1cc3[nH]c(=O)c4cnc(C5CCOCC5)n4c3cc1C)CC2.Cl [Example 68]
IC50 (PDE9): 3.5 nM | melting point: 192 to 194 °C

Cc1cc2c(cc1C(=O)N1CCc3nc4ncccc4cc3C1)[nH]c(=O)c1cnc(C3CCOCC3)n12 [Example 71]
IC50 (PDE9): 9.2 nM

Cc1cc2c(cc1C(=O)N1CCc3cc(F)ccc31)[nH]c(=O)c1cnc(C3CCOCC3)n12.Cl [Example 76]
IC50 (PDE9): 2.5 nM | melting point: 297 to 298 °C

Cc1cc2c(cc1C(=O)N1CCc3cc(Cl)ccc31)[nH]c(=O)c1cnc(C3CCOCC3)n12.Cl [Example 77]
IC50 (PDE9): 1 nM | melting point: 265 to 266 °C

Cc1cc2c(cc1C(=O)N1CCc3cc(S(=O)(=O)N(C)C)ccc31)[nH]c(=O)c1cnc(C3CCOCC3)n12.Cl [Example 80]
IC50 (PDE9): 2.6 nM | melting point: 209 to 212 °C

Cc1cc2c(cc1C(=O)N1CCc3c(Cl)cccc3C1)[nH]c(=O)c1nnc(C3CCCC3)n12 [Example 91]
IC50 (PDE9): 20 nM | melting point: 236 to 237 °C

Cc1cc2c(cc1C(=O)N1Cc3ccccc3C1)[nH]c(=O)c1nnc(C3CCOCC3)n12 [Example 93]
IC50 (PDE9): 15 nM | melting point: 305 °C (dec.)

Cc1cc2c(cc1C(=O)N1Cc3ccc(Cl)cc3C1)[nH]c(=O)c1cnc(C3CCOCC3)n12.Cl [Example 103]
IC50 (PDE9): 11 nM | melting point: 210 to 214 °C

CCCc1nnc2c(=O)[nH]c3cc(C(=O)N(C)Cc4cccc(Cl)c4)ccc3n12 [Example 134]
IC50 (PDE9): 950 nM

COc1cc2c(cc1C(=O)N1Cc3ccccc3C[C@@H]1CO)[nH]c(=O)c1cnc(C3CCCCC3)n12 [Example 220]
IC50 (PDE9): 18 nM | melting point: 215 °C (dec.)

Cc1cc2c(cc1C(=O)N1CCc3cc(F)c(Cl)cc31)[nH]c(=O)c1nnc(C3CCCC3)n12.Cl [Example 248]
IC50 (PDE9): 5.8 nM | melting point: 276 to 278 °C

Cl.O=C(c1cc2[nH]c(=O)c3cnc(C4CCOCC4)n3c2cc1C1CC1)N1CCc2cc(Cl)ccc21 [Example 263]
IC50 (PDE9): 0.9 nM | melting point: 339 to 342 °C (dec.)

COc1cc2c(cn1)N(C(=O)c1cc3[nH]c(=O)c4cnc(C5CCOCC5)n4c3cc1OC)CC2 [Example 277]
IC50 (PDE9): 16 nM | melting point: 237 °C (dec.)

O=C(c1cc2[nH]c(=O)c3cnc(C4CCOCC4)n3c2cc1Cl)N1CCc2cccnc21 [Example 279]
IC50 (PDE9): 10 nM | melting point: 275 °C (dec.)

Cc1cc2c(cc1C(=O)N1CCc3cc(Cl)ccc31)[nH]c(=O)c1nnc(C3CCCOC3)n12.Cl (centres unmarked) [Example 281]
IC50 (PDE9): 1.6 nM | melting point: 298 to 301 °C

Cc1cc2c(cc1C(=O)N1CCc3cc(F)c(F)cc31)[nH]c(=O)c1nnc(C3CCCC3)n12.Cl [Example 289]
IC50 (PDE9): 3.9 nM | melting point: 210 to 212 °C (dec.)

Cc1cc2c(cc1C(=O)N1CCc3cc(Cl)c(F)cc31)[nH]c(=O)c1cnc(C3CCOCC3)n12.Cl [Example 290]
IC50 (PDE9): 1 nM | melting point: 292 to 294 °C

Cc1cc2c(cc1C(=O)N1CCc3cc(Cl)c(F)cc31)[nH]c(=O)c1nnc(C3CCOCC3)n12 [Example 291]
IC50 (PDE9): 2.8 nM | melting point: 309 to 311 °C

COCc1cc2c(cc1C(=O)N1CCc3cc(Cl)ccc31)[nH]c(=O)c1cnc(C3CCOCC3)n12.Cl [Example 300]
IC50 (PDE9): 0.8 nM | melting point: 298 to 301 °C (dec.)

Cc1cc2c(cc1C(=O)N1CCc3cc(Br)cnc31)[nH]c(=O)c1nnc(C3CCOCC3)n12 [Example 306]
IC50 (PDE9): 4.2 nM | melting point: 222 to 223 °C

CN(C)CCOc1cc2c(cc1C(=O)N1CCc3cc(F)ccc31)[nH]c(=O)c1cnc(C3CCOCC3)n12 [Example 309]
IC50 (PDE9): 4.1 nM | melting point: 216 to 219 °C (dec.)

Cc1cc2c(cc1C(=O)N1CCc3cc(Br)cnc31)[nH]c(=O)c1nnc(C3CCOC3)n12.Cl (centres unmarked) [Example 312]
IC50 (PDE9): 20 nM | melting point: 242 to 243 °C

Cc1cc2c(cc1C(=O)N1CCc3cc(F)ccc31)[nH]c(=O)c1cnc(C3CCCOC3)n12 (centres unmarked) [Example 318]
IC50 (PDE9): 5.9 nM

COCc1cc2c(cc1C(=O)N1CCc3cc(Br)cnc31)[nH]c(=O)c1cnc(C3CCOCC3)n12.Cl [Example 320]
IC50 (PDE9): 1 nM | melting point: 310 °C (dec.)

Cc1cc2c(cc1C(=O)N1CCc3cc(F)ccc31)[nH]c(=O)c1nnc(C3(C)CCOCC3)n12.Cl [Example 322]
IC50 (PDE9): 29 nM | melting point: 243 to 245 °C

Cc1cc2c(cc1C(=O)N1CCc3cc(Cl)c(F)cc31)[nH]c(=O)c1nnc(C3CCCC3)n12 [Example 324]
IC50 (PDE9): 1.7 nM

Cl.O=C(c1cc2[nH]c(=O)c3cnc(C4CCOCC4)n3c2cc1OCCO)N1CCc2cc(Cl)ccc21 [Example 326]
IC50 (PDE9): 1.2 nM | melting point: 303 to 306 °C (dec.)

Cc1cc2c(cc1C(=O)N1CCc3cc(Cl)ccc31)[nH]c(=O)c1cnc([C@H]3CC[C@@H](O)CC3)n12.Cl [Example 330]
IC50 (PDE9): 1.2 nM | melting point: 204 to 206 °C

COCc1cc2c(cc1C(=O)N1CCc3cc(OC)ncc31)[nH]c(=O)c1cnc(C3CCOCC3)n12 [Example 333]
IC50 (PDE9): 2.9 nM | melting point: 208 °C (dec.)

COc1cc2c(cc1C(=O)N1Cc3ccccc3C1)[nH]c(=O)c1nnc(C3CCOCC3)n12.Cl [Example 338]
IC50 (PDE9): 28 nM | melting point: 228 °C (dec.)

Cc1cc2c(cc1C(=O)N1CCc3cc(F)cnc31)[nH]c(=O)c1cnc(C3CCOCC3)n12.Cl [Example 344]
IC50 (PDE9): 7.7 nM | melting point: 340 °C (dec.)

Cc1cc2c(cc1C(=O)N1CCc3cc(Br)cnc31)[nH]c(=O)c1nnc(C3CC(F)(F)C3)n12 [Example 346]
IC50 (PDE9): 27 nM

COCc1cc2c(cc1C(=O)N1CCc3cc(Cl)ccc31)[nH]c(=O)c1nnc(C3CCOCC3)n12 [Example 347]
IC50 (PDE9): 3.3 nM | melting point: 198 to 201 °C

COCc1cc2c(cc1C(=O)N1CCc3ncccc3C1)[nH]c(=O)c1cnc(C3CCOCC3)n12 [Example 350]
IC50 (PDE9): 9.2 nM | melting point: 172 to 175 °C

Cc1cc2c(cc1C(=O)N1CCc3cc(F)cnc31)[nH]c(=O)c1nnc(C3CCOCC3)n12 [Example 352]
IC50 (PDE9): 12 nM

Cc1cc2c(cc1C(=O)N1CCc3cc(Cl)ccc31)[nH]c(=O)c1nnc([C@H]3CC[C@@H](O)CC3)n12 [Example 356]
IC50 (PDE9): 1.5 nM | melting point: 277 to 279 °C

Cc1cc2c(cc1C(=O)N1CCc3cc(Cl)ccc31)[nH]c(=O)c1nnc(C(O)C3CC3)n12 (centres unmarked) [Example 359]
IC50 (PDE9): 5.4 nM | melting point: 260 to 262 °C (dec.)

Cc1cc2c(cc1C(=O)N1CC(C)(C)c3cc(Cl)ccc31)[nH]c(=O)c1cnc(C3CCOCC3)n12 [Example 516]
IC50 (PDE9): 0.8 nM

Cc1cc2c(cc1C(=O)N1CC(C)(C)c3cc(Cl)ccc31)[nH]c(=O)c1nnc(C3CCOCC3)n12.Cl [Example 517]
IC50 (PDE9): 0.9 nM | melting point: 227 to 230 °C

COCc1cc2c(cc1C(=O)N1CCc3cc(F)c(F)cc31)[nH]c(=O)c1nnc(C3CCOCC3)n12.Cl [Example 519]
IC50 (PDE9): 6.8 nM | melting point: 266 to 269 °C
